Earlier results as cited in US9433602B2, “Combination and composition for treating obesity” (LABORATORIOS SENOSIAIN S.A. DE C.V., priority 2010, dated 2016).
“And” between values parts separate entries of the source, which are not always exact repeats. Equal entries are not always repeated.

Key:
[1] = not given; remark: listed apart in the source
[2] = system: gastric and pancreatic lipases; settings: pharmacological effect of the drug
[3] = humans, taken orally

Question: With Oc1ccc(C=Cc2cc(O)cc(O)c2)cc1 [Resveratrol, 3,5,4′-trihydroxystilbene] as the compound, how does the “Solubility in alcohol and methanol” value (alcohol and methanol) read?
Answer: soluble in alcohol and methanol

Question: What about the “Solubility in hydrochloric acid 10%” value (hydrochloric acid 10%) of the same compound?
Answer: insoluble in hydrochloric acid 10%

Question: And the Solubility in water?
Answer: insoluble in water

Question: For CCCCCCCCCCC[C@@H](C[C@@H]1OC(=O)[C@H]1CCCCCC)OC(=O)[C@H](CC(C)C)NC=O [orlistat], which Solubility in chloroform (chloroform) is on record?
Answer: easily soluble in chloroform

Question: And the Solubility in water?
Answer: insoluble in water

Question: And the “Plasma concentrations of intact orlistat” value ([1]; after single administration of 360 mg, normal weight and obese subjects)?
Answer: < 5 ng/mL

Question: And the “Plasma concentrations in general” value ([1]; in general, no evidence of accumulation)?
Answer: < 10 ng/ml and < 0.02 μM

Question: And the “Share of the fecally excreted dose that was unchanged orlistat” value ([1]; of the dose excreted in feces)?
Answer: 83%

Question: And the “Administered dose excreted in feces” value ([1]; people with normal weight or obese)?
Answer: Approximately 97%

Question: And the “Decrease of the absorption of ingested fat” value [2]?
Answer: 30%

Question: Which Bioavailability [3] does the source give for Oc1ccc(/C=C/c2cc(O)cc(O)c2)cc1 [trans-resveratrol] here?
Answer: relatively low

Question: What about the Half-life [3] of the same compound?
Answer: approximately 8 h
